The assay has as its target human neprilysin (EC 3.4.24.11; NEP) (Homo sapiens (Human), UniProt P08473). Put plainly: In vitro enzyme inhibition assay at human NEP (fluorogenic peptide substrate). Type of assay: biochemical. As to conditions: pKi values at human NEP, recombinant human NEP. The procedure, abridged: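 Recombinant human NEP preincubated 30 min at 37 °C with compound (10 μM down to pM), then 10 μM Mca-D-Arg-Arg-Leu-Dap-(Dnp)-OH in 50 mM HEPES pH 7.5, 100 mM NaCl, 0.01% Tween-20, 10 μM ZnSO4. Stopped after 20 min with acetic acid; fluorescence Ex320/Em405; Ki by nonlinear fit, reported as pKi.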
Chain of human neprilysin (EC 3.4.24.11; NEP) (P08473 52-750): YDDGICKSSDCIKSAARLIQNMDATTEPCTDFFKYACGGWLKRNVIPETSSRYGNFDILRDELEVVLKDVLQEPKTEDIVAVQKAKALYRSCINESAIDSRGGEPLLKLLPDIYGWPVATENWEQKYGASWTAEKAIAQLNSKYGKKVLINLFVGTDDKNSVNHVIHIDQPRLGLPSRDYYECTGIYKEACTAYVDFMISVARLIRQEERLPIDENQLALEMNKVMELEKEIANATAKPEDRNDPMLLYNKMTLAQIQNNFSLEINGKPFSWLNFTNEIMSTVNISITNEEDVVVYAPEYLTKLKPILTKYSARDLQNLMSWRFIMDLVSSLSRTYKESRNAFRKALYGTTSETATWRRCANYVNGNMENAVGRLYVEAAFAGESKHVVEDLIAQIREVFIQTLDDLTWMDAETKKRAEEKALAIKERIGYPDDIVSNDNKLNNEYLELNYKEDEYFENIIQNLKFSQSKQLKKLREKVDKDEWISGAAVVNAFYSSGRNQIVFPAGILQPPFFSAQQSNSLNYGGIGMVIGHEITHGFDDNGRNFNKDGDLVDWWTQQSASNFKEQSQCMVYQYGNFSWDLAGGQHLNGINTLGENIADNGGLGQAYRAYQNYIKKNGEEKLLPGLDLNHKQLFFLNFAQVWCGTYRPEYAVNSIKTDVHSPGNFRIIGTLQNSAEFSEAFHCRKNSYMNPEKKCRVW
For the molecule `O=C(N[C@H](Cc1ccc(-c2ccccc2)cc1)CC(O)C(=O)O)c1cc(-c2ccc3ccccc3c2)[nH]n1` (stereo partly drawn) [Example 15-38, (R)-5-Biphenyl-4-yl-2-hydroxy-4-[(5-naphthalen-2-yl-1H-pyrazole-3-carbonyl)amino]-pentanoic acid], the Ki (in general, a measure of affinity in units of concentration, obtained from inhibition or displacement) was 1.26 to 10 nM. On the same count and under the same terms, the same measure for `O=C(N[C@H](Cc1ccc(-c2ccccc2)cc1)CC(O)C(=O)O)c1cc(-c2ccc(-c3ccccc3)cc2)[nH]n1` (stereo partly drawn) [Example 15-39, (R)-5-Biphenyl-4-yl-4-[(5-biphenyl-4-yl-1H-pyrazole-3-carbonyl)amino]-2-hydroxy-pentanoic acid]: 12.6 to 100 nM.

Consider `O=C(N[C@H](Cc1ccc(-c2ccccc2)cc1)CC(O)C(=O)O)c1cc(-c2ccc(Cl)cc2)[nH]n1` (stereo partly drawn) [Example 15-40, (R)-5-Biphenyl-4-yl-4-{[5-(4-chlorophenyl)-1H-pyrazole-3-carbonyl]amino}-2-hydroxy-pentanoic acid], for which the Ki was 1.26 to 10 nM. Same read-out and setting: the same measure for `O=C(N[C@H](Cc1ccc(-c2ccccc2)cc1)CC(O)C(=O)O)c1cc(C(=O)N2CCC(O)C2)n[nH]1` (stereo partly drawn) [Example 15-42, (R)-5-Biphenyl-4-yl-2-hydroxy-4-{[5-(3-hydroxypyrrolidine-1-carbonyl)-2H-pyrazole-3-carbonyl]-amino}-pentanoic acid]: at most 1 nM; for `NC(=O)C1CCN(C(=O)c2cc(C(=O)N[C@H](Cc3ccc(-c4ccccc4)cc3)C[C@H](O)C(=O)O)[nH]n2)C1` (stereo partly drawn) [Example 15-44, (2S,4R)-5-Biphenyl-4-yl-4-{[5-(3-carbamoylpyrrolidine-1-carbonyl)-2H-pyrazole-3-carbonyl]-amino}-2-hydroxy-pentanoic acid]: 1.26 to 10 nM. In the case of `NC(=O)C1CCN(C(=O)c2cc(C(=O)N[C@H](Cc3ccc(-c4ccccc4)cc3)C[C@@H](O)C(=O)O)[nH]n2)C1` (stereo partly drawn) [Example 15-46, (2R,4R)-5-Biphenyl-4-yl-4-{[5-(3-carbamoylpyrrolidine-1-carbonyl)-2H-pyrazole-3-carbonyl]-amino}-2-hydroxy-pentanoic acid], the pKi (commonly the Ki on a negative log10 scale, so that one unit is a factor of ten) is at least 9.0. Regarding `O=C(N[C@H](Cc1ccc(-c2ccccc2)cc1)C[C@@H](O)C(=O)O)c1cc(C(=O)N2CCC(O)CC2)n[nH]1` [Example 15-48, (2R,4R)-5-Biphenyl-4-yl-2-hydroxy-4-{[5-(4-hydroxypiperidine-1-carbonyl)-2H-pyrazole-3-carbonyl]-amino}-pentanoic acid], the pKi was at least 9.0. Take `O=C(N[C@H](Cc1ccc(-c2ccccc2)cc1)C[C@H](O)C(=O)O)c1cc(C(=O)N2CCC(O)CC2)n[nH]1` [Example 15-50, (2S,4R)-5-Biphenyl-4-yl-2-hydroxy-4-{[5-(4-hydroxypiperidine-1-carbonyl)-2H-pyrazole-3-carbonyl]-amino}-pentanoic acid]: the Ki is 12.6 to 100 nM. For `O=C(N[C@H](Cc1ccc(-c2ccccc2)cc1)CC(O)C(=O)O)c1cc(C(=O)N2CCOCC2)n[nH]1` (stereo partly drawn) [Example 15-53, (R)-5-Biphenyl-4-yl-2-hydroxy-4-{[5-(morpholine-4-carbonyl)-2H-pyrazole-3-carbonyl]amino}pentanoic acid], the inhibitory constant (Ki) was 1.26 to 10 nM. Still for that read-out and setting: the same measure for `O=C(NC1CC1)c1cc(C(=O)N[C@H](Cc2ccc(-c3ccccc3)cc2)C[C@H](O)C(=O)O)[nH]n1` [Example 15-55, (2S,4R)-5-Biphenyl-4-yl-4-[(5-cyclopropylcarbamoyl-2H-pyrazole-3-carbonyl)-amino]-2-hydroxypentanoic acid]: 12.6 to 100 nM. Still for that read-out and setting: the same measure for `O=C(O)CNC(=O)c1cc(C(=O)N[C@H](Cc2ccc(-c3ccccc3)cc2)CC(O)C(=O)O)[nH]n1` (stereo partly drawn) [Example 15-56, (R)-5-Biphenyl-4-yl-4-{[5-(carboxymethyl-carbamoyl)-2H-pyrazole-3-carbonyl]-amino}-2-hydroxy-pentanoic acid]: 1.26 to 10 nM. With `O=C(NC1CC1)c1cc(C(=O)N[C@H](Cc2ccc(-c3ccccc3)cc2)C[C@@H](O)C(=O)O)[nH]n1` [Example 15-57, (2R,4R)-5-Biphenyl-4-yl-4-[(5-cyclopropylcarbamoyl-2H-pyrazole-3-carbonyl)-amino]-2-hydroxypentanoic acid], the pKi is given as at least 9.0. With `NC(=O)c1cc(C(=O)N[C@H](Cc2ccc(-c3ccccc3)cc2)CC(O)C(=O)O)[nH]n1` (stereo partly drawn) [Example 15-59, (R)-5-Biphenyl-4-yl-4-[(5-carbamoyl-2H-pyrazole-3-carbonyl)-amino]-2-hydroxy-pentanoic acid], the Ki was 1.26 to 10 nM. As for `CNC(=O)c1cc(C(=O)N[C@H](Cc2ccc(-c3ccccc3)cc2)C[C@@H](O)C(=O)O)[nH]n1` [Example 15-60, (2R,4R)-5-Biphenyl-4-yl-2-hydroxy-4-[(5-methylcarbamoyl-2H-pyrazole-3-carbonyl)-amino]pentanoic acid], the pKi is at least 9.0. For `CCCNC(=O)c1cc(C(=O)N[C@H](Cc2ccc(-c3ccccc3)cc2)CC(O)C(=O)O)[nH]n1` (stereo partly drawn) [Example 15-61, (R)-5-Biphenyl-4-yl-2-hydroxy-4-[(5-propylcarbamoyl-2H-pyrazole-3-carbonyl)-amino]pentanoic acid], the Ki is at most 1 nM. Take `CN(C)C(=O)c1cc(C(=O)N[C@H](Cc2ccc(-c3ccccc3)cc2)C[C@@H](O)C(=O)O)[nH]n1` [Example 15-63, (2R,4R)-5-Biphenyl-4-yl-4-[(5-dimethylcarbamoyl-2H-pyrazole-3-carbonyl)-amino]-2-hydroxy-pentanoic acid]: the pKi is listed as at least 9.0. Regarding `CC(C)CN(C)C(=O)c1cc(C(=O)N[C@H](Cc2ccc(-c3ccccc3)cc2)C[C@H](O)C(=O)O)[nH]n1` [Example 15-65, (2S,4R)-5-Biphenyl-4-yl-2-hydroxy-4-{[5-(isobutylmethyl-carbamoyl)-2H-pyrazole-3-carbonyl]amino}-pentanoic acid], the Ki is 12.6 to 100 nM.

Turning to `CC(C)CN(C)C(=O)c1cc(C(=O)N[C@H](Cc2ccc(-c3ccccc3)cc2)C[C@@H](O)C(=O)O)[nH]n1` [Example 15-67, (2R,4R)-5-Biphenyl-4-yl-2-hydroxy-4-{[5-(isobutylmethyl-carbamoyl)-2H-pyrazole-3-carbonyl]amino}-pentanoic acid], the pKi is listed as at least 9.0. On to `O=C(NCCc1cnc[nH]1)c1cc(C(=O)N[C@H](Cc2ccc(-c3ccccc3)cc2)C[C@@H](O)C(=O)O)[nH]n1` [Example 15-69, (2R,4R)-5-Biphenyl-4-yl-2-hydroxy-4-({5-[2-(3H-imidazol-4-yl)-ethylcarbamoyl]-2H-pyrazole-3-carbonyl}amino)pentanoic acid], for which the Ki is 12.6 to 100 nM. Still for that read-out and setting: the figure for `O=C(NCCO)c1cc(C(=O)N[C@H](Cc2ccc(-c3ccccc3)cc2)CC(O)C(=O)O)[nH]n1` (stereo partly drawn) [Example 15-70, (R)-5-Biphenyl-4-yl-2-hydroxy-4-{[5-(2-hydroxy-ethylcarbamoyl)-2H-pyrazole-3-carbonyl]-amino}-pentanoic acid] is 1.26 to 10 nM; for `CN(C)CCNC(=O)c1cc(C(=O)N[C@H](Cc2ccc(-c3ccccc3)cc2)CC(O)C(=O)O)[nH]n1` (stereo partly drawn) [Example 15-71, (R)-5-Biphenyl-4-yl-4-{[5-(2-dimethylamino-ethylcarbamoyl)-2H-pyrazole-3-carbonyl]-amino}-2-hydroxy-pentanoic acid] it is 1.26 to 10 nM. On the same count and under the same terms, the same measure for `O=C(N[C@H](Cc1ccc(-c2ccccc2)cc1)CC(O)C(=O)O)c1cc(C2CC2)n[nH]1` (stereo partly drawn) [Example 15-72, (R)-5-Biphenyl-4-yl-4-[(5-cyclopropyl-2H-pyrazole-3-carbonyl)-amino]-2-hydroxy-pentanoic acid]: 12.6 to 100 nM; for `CC(C)c1cc(C(=O)N[C@H](Cc2ccc(-c3ccccc3)cc2)CC(O)C(=O)O)[nH]n1` (stereo partly drawn) [Example 15-73, (R)-5-Biphenyl-4-yl-2-hydroxy-4-[(5-isopropyl-2H-pyrazole-3-carbonyl)amino]-pentanoic acid]: 12.6 to 100 nM; for `CCCc1cc(C(=O)N[C@H](Cc2ccc(-c3ccccc3)cc2)CC(O)C(=O)O)[nH]n1` (stereo partly drawn) [Example 15-74, (R)-5-Biphenyl-4-yl-2-hydroxy-4-[(5-propyl-2H-pyrazole-3-carbonyl)amino]-pentanoic acid]: 12.6 to 100 nM. For `CCCCc1cc(C(=O)N[C@H](Cc2ccc(-c3ccccc3)cc2)CC(O)C(=O)O)[nH]n1` (stereo partly drawn) [Example 15-75, (R)-5-Biphenyl-4-yl-4-[(5-butyl-2H-pyrazole-3-carbonyl)-amino]-2-hydroxy-pentanoic acid], the Ki was 1.26 to 10 nM.

For `O=C(N[C@H](Cc1ccc(-c2ccccc2)cc1)CC(O)C(=O)O)c1cc(-c2ccccc2)n[nH]1` (stereo partly drawn) [Example 15-76, (R)-5-Biphenyl-4-yl-2-hydroxy-4-[(5-phenyl-2H-pyrazole-3-carbonyl)-amino]-pentanoic acid], the Ki was 1.26 to 10 nM.

As to `COc1ccccc1-c1cc(C(=O)N[C@H](Cc2ccc(-c3ccccc3)cc2)C[C@@H](O)C(=O)O)[nH]n1` [Example 15-79, (2R,4R)-5-Biphenyl-4-yl-2-hydroxy-4-{[5-(2-methoxy-phenyl)-2H-pyrazole-3-carbonyl]-amino}-pentanoic acid], the pKi is listed as at least 9.0. With `COc1ccc(OC)c(-c2cc(C(=O)N[C@H](Cc3ccc(-c4ccccc4)cc3)C[C@@H](O)C(=O)O)[nH]n2)c1` [Example 15-80, (2R,4R)-5-Biphenyl-4-yl-4-{[5-(2,5-dimethoxy-phenyl)-2H-pyrazole-3-carbonyl]-amino}-2-hydroxy-pentanoic acid], the pKi is reported as at least 9.0. Take `O=C(N[C@H](Cc1ccc(-c2ccccc2)cc1)CC(O)C(=O)O)c1cc(-c2ccccc2C(F)(F)F)n[nH]1` (stereo partly drawn) [Example 15-81, (R)-5-Biphenyl-4-yl-2-hydroxy-4-{[5-(2-trifluoromethyl-phenyl)-2H-pyrazole-3-carbonyl]-amino}-pentanoic acid]: the Ki is 12.6 to 100 nM. Same read-out and setting: the same measure for `O=C(N[C@H](Cc1ccc(-c2ccccc2)cc1)CC(O)C(=O)O)c1cc(-c2ccc(F)cc2)n[nH]1` (stereo partly drawn) [Example 15-82, (R)-5-Biphenyl-4-yl-4-{[5-(4-fluorophenyl)-2H-pyrazole-3-carbonyl]amino}-2-hydroxy-pentanoic acid]: 1.26 to 10 nM.

The values above are taken from patent US10759813B2, “Neprilysin inhibitors” (THERAVANCE BIOPHARMA R&D IP, LLC, priority 2010, dated 2020).
